The target in this test is T1, Gag-Pol polyprotein [1148-1435] (Human immunodeficiency virus 1, UniProt P04585).
T1 construct: 1148-1435
Nature of the test: HIV Integrase Strand Transfer Scintillation Proximity Assay (SPA). The settings on record: pH 7.2; 37 °C. The procedure:
Purified recombinant integrase was first combined in a complex with biotinylated donor DNA- streptavidin-coated SPA beads. The complex was preincubated with the test compound, and strand transfer was initiated with a radiolabeled target DNA substrate. After incubation, the incorporated radioactivity was read in a Wallac MicroBeta scintillation plate reader using a counting protocol that corrected for optical cross talk between wells.
In general, IC50 refers to the concentration at which inhibition is half-maximal. Low values mean inhibition by little substance, high ones a need for much substance. `O=S1(=O)CCCCN1c1nc(-c2noc(Cc3ccc(F)cc3)n2)c(O)c2ncccc12` [2-(7-{5-[(4-fluorophenyl)methyl]-1,2,4-oxadiazol-3-yl}-8-hydroxy-1,6-naphthyridin-5-yl)-1,2-thiazinane-1,1-dione] had an IC50 above 100 µM. In the case of `O=C(NCc1ccc(F)cc1)c1nc(N2CCCCS2(=O)=O)c2cccnc2c1O` [5-(1,1-dioxo-1,2-thiazinan-2-yl)-N-[(4-fluorophenyl)methyl]-8-hydroxy-1,6-naphthyridine-7-carboxamide], 0.013 µM corresponded to half-maximal inhibition (IC50). The result for `Oc1c(-c2noc(-c3ccccc3)n2)ncc2cccnc12` [7-(5-phenyl-1,2,4-oxadiazol-3-yl)-1,6-naphthyridin-8-ol] reads above 100 µM. The result for `Cn1nc(Cc2ccc(F)cc2)nc1-c1ncc2cccnc2c1O` [7-{3-[(4-fluorophenyl)methyl]-1-methyl-1H-1,2,4-triazol-5-yl}-1,6-naphthyridin-8-ol] reads above 500 µM.

The values are drawn from BindingDB's records for doi:10.1016/j.bmcl.2009.01.090 (Gsk, 2009).
